Patent publication US20030114512A1, “Compounds with 5-ht2 and 5-ht1a agonist activity for treating glaucoma” (priority 2002, published 2003)
Like-named read-outs stand apart in the source and are kept apart here.

Legend:
[1] = system: intraocular pressure; assay: IOP response in lasered (hypertensive) eyes of conscious cynomolgus monkeys; type: in vivo, cynomolgus monkey
Protocol: IOP Response in Lasered (Hypertensive) Eyes of Conscious Cynomolgus Monkeys
Intraocular pressure (IOP) was determined with an Alcon Pneumatonometer after light corneal anesthesia with 0.1% proparacaine. Eyes were washed with saline after each measurement. After a baseline IOP measurement, test compound was instilled in one 30 μL aliquot to the right eyes only of nine cynomolgus monkeys. Vehicle was instilled in the right eyes of six additional animals. Subsequent IOP measurements were taken at 1, 3, and 6 hours.

[2] = target: T1, 5-HT2 receptor (Rattus norvegicus, UniProt P14842); assay: 5-HT2 functional assay: phosphoinositide (PI) turnover; type: cell-based; conditions: for Emax: A7r5 cells, relative to 5-HT set at 100%, read-out: Efficacy (Emax, %) 5-HT2 functional
T1 construct: A7r5 rat vascular smooth muscle cells; endogenous in cells; host or cells: A7r5 rat vascular smooth muscle cells
T1 sequence (P14842 whole entry): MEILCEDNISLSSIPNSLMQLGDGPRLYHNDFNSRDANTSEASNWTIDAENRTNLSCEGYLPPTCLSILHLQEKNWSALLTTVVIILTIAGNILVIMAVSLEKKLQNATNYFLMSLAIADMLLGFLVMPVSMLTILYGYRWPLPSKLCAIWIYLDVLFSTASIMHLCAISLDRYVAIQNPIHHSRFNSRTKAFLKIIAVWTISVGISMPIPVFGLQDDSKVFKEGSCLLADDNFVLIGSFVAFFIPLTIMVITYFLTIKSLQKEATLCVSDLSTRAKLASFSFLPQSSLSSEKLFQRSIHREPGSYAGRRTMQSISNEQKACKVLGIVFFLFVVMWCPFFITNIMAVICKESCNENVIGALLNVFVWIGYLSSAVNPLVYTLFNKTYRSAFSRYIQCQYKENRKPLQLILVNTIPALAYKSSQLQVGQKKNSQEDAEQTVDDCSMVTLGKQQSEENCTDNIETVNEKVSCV
Protocol: 5-HT2 Functional Assay: Phosphoinositide (PI) Turnover Assay
The relative agonist activity of serotonergic compounds at the 5-HT2 receptor can be determined in vitro using the ability of the compounds to stimulate the production of [^3H]inositol phosphates in [^3H]myo-inositol-labeled A7r5 rat vascular smooth muscle cells by their ability to activate the enzyme phospholipase C. These cells are grown in culture plates, maintained in a humidified atmosphere of 5% CO2 and 95% air and fed semi-weekly with Dulbecco's modified Eagle medium (DMEM) containing 4.5 g/l glucose and supplemented with 2 mM glutamine, 10 μg/ml gentamicin, and 10% fetal bovine serum. For the purpose of conducting the phosphoinositide (PI) turnover experiments, the A7r5 cells are cultured in 24-well plates as previously [J. Pharmacol. Expt. Ther., 286, 411 (1998)]. Confluent cells are exposed for 24-30 hrs to 1.5 μCi [^3H]-myo-inositol (18.3 Ci/mmol) in 0.5 ml of serum-free medium. Cells are then rinsed once with DMEM/F-12 containing 10 mM LiCl prior to incubation with the test agent (or solvent as the control) in 1.0 ml of the same medium for 1 hr at 37° C., after which the medium is aspirated and 1 ml of cold 0.1 M formic acid added to stop the reaction. The chromatographic separation of [^3H]-inositol phosphates ([^3H]-IPs) on an AG-1-X8 column is performed as previously described [J. Pharmacol. Expt. Ther. 286, 411 (1998)] with sequential washes with H2O and 50 mM ammonium formate, followed by elution of the total [^3H]-IPs fraction with 1.2 M ammonium formate containing 0.1 M formic acid. The eluate (4 ml) is collected, mixed with 15 ml scintillation fluid, and the total [^3H]-IPs determined by scintillation counting on a beta counter. Concentration-response data are analyzed by the sigmoidal fit function of the Origin Scientific Graphics software (Microcal Software, Northampton, Mass.) to determine agonist potency (EC50 value) and efficacy (Emax). Serotonin (5-HT) is used as a positive control (standard) agonist compound and the efficacy of test compounds is compared to that of 5-HT (set at 100%). The concentration of the compound needed to stimulate the production of [^3H]-IPs by 50% of the maximum response is termed the EC50 value.

[3] = system: photooxidative induced retinopathy; assay: Neuroprotective effects in the rat photooxidative induced retinopathy model (ERG); type: in vivo, Sprague Dawley rat; conditions: for A-wave Amplitude Mean / B-wave Amplitude Mean: ERG after five day recovery
Protocol: Neuroprotective Effects in the Rat Photooxidative Induced Retinopathy Model
Male Sprague Dawley rats were randomly assigned to vehicle treatment (saline) or drug treatment (dissolved in saline) experimental groups. α-methyl-5-hydroxytryptamine (1, 5, and 10 mg/kg) or vehicle was administered by subcutaneous (SC) injection at 48, 24, and 0 hours prior to light exposure and once 24 hours after a 6-hour light exposure to spectrally filtered blue light (˜220 fc). Control rats were housed in their home cage under normal cyclic light exposure. Rats were single housed in clear polycarbonate cages during this light exposure.
The electroretinogram (ERG) was recorded after a five day recovery period from dark-adapted anesthetized rats (Ketamine-HCl, 75 mg/Kg; Xylazine, 6 mg/Kg). The eye's electrical response to a flash of light was elicited by viewing a ganzfeld. ERGs to a series of light flashes increasing in intensity were digitized to analyze temporal characteristics of the waveform and determine the response voltage-log intensity (VlogI) relationship. Changes in the ERG a-wave are associated with photoreceptor and retinal pigment epithelium damage while damage to the inner retina is reflected in changes in the ERG b-wave.

[4] = 300 μg topical ocular, 1 hour after dose
[5] = 300 μg topical ocular, 3 hours after dose
[6] = 300 μg topical ocular, 6 hours after dose

With `CC(N)Cn1ccc2ccc(O)cc21.O=C(O)/C=C/C(=O)O` (centres unmarked) [1-(2-aminopropyl) 6-hydroxyindole fumarate] the “Percent IOP Reduction” value [1, 4] was 19.1%, the “Percent IOP Reduction” value [1, 5] was 30.1% and the “Percent IOP Reduction” value [1, 6] was 27%. For the same compound, the Emax [2] was 86% and the EC50 ([2]; [3H]inositol phosphates, A7r5 rat vascular smooth muscle cells, read-out: EC50, nM (SEM) 5-HT2 functional) was 577 nM.

With `CC(N)Cc1c[nH]c2ccc(O)cc12.O=C(O)/C=C\C(=O)O` (stereo not drawn) [α-Methyl 5-hydroxytryptamine maleate, 3-(2-aminopropyl)-1H-indol-5-ol] the “Maximum a- and b-wave response amplitudes compared with vehicle dosed rats” value ([3]; 1.0 mg/kg) was “not significantly different than vehicle dosed rats”, the “Maximum a- and b-wave response amplitudes, % of control animals” value ([3]; 1.0 mg/kg) was “approximately 30%” and the “A-wave Amplitude Mean” value ([3]; 1.0 mg/kg SC) was 237.8 μV. The “B-wave Amplitude Mean” value ([3]; 1.0 mg/kg SC) was 555 μV, the “A-wave Amplitude Mean” value ([3]; 5.0 mg/kg SC) was 471.93 μV and the “B-wave Amplitude Mean” value ([3]; 5.0 mg/kg SC) was 1123 μV. The “A-wave Amplitude Mean” value ([3]; 10.0 mg/kg SC) was 477.7 μV, the “B-wave Amplitude Mean” value ([3]; 10.0 mg/kg SC) was 1126 μV and the “Protection of retina function against photo-oxidative induced retinopathy” value ([3]; 1, 5 and 10 mg/kg SC) was “dose-dependent protection of outer and inner retina function”. For the same compound, the “Maximum a- and b-wave response amplitudes compared with vehicle dosed rats” value ([3]; 5 and 10 mg/kg) was “significantly higher than responses measured in vehicle dosed rats”, the “Maximum a-wave response amplitude, % of control animals” value ([3]; 5 and 10 mg/kg, first of 'respectively' values) was “approximately 58%” and the “Maximum b-wave response amplitude, % of control animals” value ([3]; 5 and 10 mg/kg, second of 'respectively' values) was ~62%. For the same compound, the “Percent IOP Reduction” value ([1]; 250 μg topical ocular, 1 hour after dose) was 14.2%, the “Percent IOP Reduction” value ([1]; 250 μg topical ocular, 3 hours after dose) was 25.8% and the “Percent IOP Reduction” value ([1]; 250 μg topical ocular, 6 hours after dose) was 30.8%. The Emax [2] was 104%.

`COc1ccc2[nH]cc(CC(C)N)c2c1.O=C(O)/C=C/C(=O)O` (stereo not drawn) [α-Methyl 5-methoxytryptamine fumarate] was tested, and the “Percent IOP Reduction” value [1, 4] was 14%, the “Percent IOP Reduction” value [1, 5] was 23.5% and the “Percent IOP Reduction” value [1, 6] was 22.6%. The EC50 [2] was 206 nM and the Emax [2] was 81%.
